Measured values from patent US20250215039A1, “NUCLEOSIDES FOR TREATING CANCER” (PRIMEFOUR THERAPEUTICS, INC., priority 2022, published 2025).
Where two headings read alike, the source gives them in different places.

System: cancer cell lines
Assay: Cancer cell proliferation activity (CellTiterGlo, 72 h)
Format: cell-based
Conditions: 72 h, 72 h, read-out: IC50 cell proliferation
Summary of the method: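 Readout is CellTiterGlo luminescence after 72 h compound exposure (0.1% DMSO final), started one day post-seeding, at 37 °C.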

`C[C@]1(CO)O[C@@H](n2cnc3c(N)nc(F)nc32)[C@H](O)[C@@H]1O` [Cpd. No. 178, (2R,3S,4R,5R)-5-(6-amino-2-fluoro-9H-purin-9-yl)-2-(hydroxymethyl)-2-methyltetrahydrofuran-3,4-diol] was tested, and the IC50 (5637 (bladder)) was 0.16 µM, the IC50 (CLS439 (bladder)) was 0.77 µM and the IC50 (HS729 (muscle)) was 0.12 µM. It also gave an IC50 (J82 (bladder)) of 0.08 µM, an IC50 (JAR (placenta)) of 0.03 µM and an IC50 (MT3 (breast)) of 0.04 µM. The IC50 (PANCI (pancreas)) was 14.9 µM, the IC50 (PC3 (prostate)) was 0.07 µM and the IC50 (RD (muscle)) was 0.07 µM. The IC50 (T24 (bladder)) was 0.09 µM, the IC50 (Homo sapiens, 22Rv1, 72 h, 22RV1 (prostate)) was 0.25 µM and the IC50 (Homo sapiens, 786-0, 72 h, 786O (kidney)) was 0.07 µM. For the same molecule, the IC50 (Homo sapiens, A204, 72 h, A204 (muscle)) was 0.03 µM, the IC50 (Homo sapiens, A549, 72 h, A549 (lung)) was 0.37 µM and the IC50 (Homo sapiens, A673, 72 h, A673 (bone)) was 0.36 µM. The IC50 (Homo sapiens, A2780, 72 h, A2780 (ovary)) was 0.15 µM, the IC50 (Homo sapiens, A-375, 72 h, A375 (skin)) was 0.04 µM and the IC50 (Homo sapiens, A-431, 72 h, A431 (skin)) was 0.05 µM. The IC50 (Homo sapiens, ACHN, ACHN (kidney)) was 0.46 µM, the IC50 (Homo sapiens, ASPC1, 72 h, ASPC1 (pancreas)) was 0.03 µM and the IC50 (Homo sapiens, BT-20, 72 h, BT20 (breast)) was 0.07 µM. The IC50 (Homo sapiens, BXPC-3, 72 h, BXPC3 (pancreas)) was 0.52 µM, the IC50 (Homo sapiens, C-33-A, C33A (endometrial)) was 0.06 µM and the IC50 (Homo sapiens, CAKI-1, 72 h, CAKI1 (kidney)) was 0.01 µM. For the same molecule, the IC50 (Homo sapiens, COLO 205, 72 h, COLO205 (colon)) was 0.17 µM, the IC50 (Homo sapiens, COLO-678, 72 h, COLO678 (colon)) was 0.65 µM and the IC50 (Homo sapiens, Ca-Ski, CASKI (endometrial)) was 0.04 µM. It also gave an IC50 (Homo sapiens, Caco-2, 72 h, CACO2 (colon)) of 0.16 µM, an IC50 (Homo sapiens, Calu-6, 72 h, CALU6 (lung)) of 0.03 µM and an IC50 (Homo sapiens, DLD-1, 72 h, DLD1 (colon)) of 0.35 µM. For the same molecule, the IC50 (Homo sapiens, DU-145, 72 h, DU145 (prostate)) was 0.02 µM, the IC50 (Homo sapiens, EFO-21, 72 h, EFO21 (ovary)) was 0.08 µM and the IC50 (Homo sapiens, EJ-28, 72 h, EJ28 (bladder)) was 0.06 µM. It also gave an IC50 (Homo sapiens, Granta-519, 72 h, GRANTA-519 (hematological)) of 2.84 µM, an IC50 (Homo sapiens, HCT-15, 72 h, HCT15 (colon)) of 0.14 µM and an IC50 (Homo sapiens, HCT-116, 72 h, HCT116 (colon)) of 0.16 µM. The IC50 (Homo sapiens, HEK293, 72 h, HEK293 (kidney)) was 0.07 µM, the IC50 (Homo sapiens, HL-60, 72 h, HL-60 (hematological)) was 0.04 µM and the IC50 (Homo sapiens, HT-29, 72 h, HT29 (colon)) was 0.05 µM. For the same molecule, the IC50 (Homo sapiens, HT-1080, 72 h, HT1080 (connective tissue)) was 2.09 µM, the IC50 (Homo sapiens, HeLa, HELA (endometrial)) was 0.07 µM and the IC50 (Homo sapiens, HepG2, 72 h, HEPG2 (liver)) was 0.06 µM. For the same molecule, the IC50 (Homo sapiens, Hs-578T, HS578T (breast)) was 0.07 µM, the IC50 (Homo sapiens, IGROV-1, 72 h, IGROV1 (ovary)) was 0.03 µM and the IC50 (Homo sapiens, IMR-90, 72 h, IMR90 (lung)) was 0.05 µM. The IC50 (Homo sapiens, JEG-3, 72 h, JEG3 (placenta)) was 0.04 µM, the IC50 (Homo sapiens, JIMT-1, 72 h, JIMT1 (breast)) was 0.02 µM and the IC50 (Homo sapiens, K562, 72 h, K-562 (hematological)) was 1.17 µM. The IC50 (Homo sapiens, Kasumi 1, 72 h, KASUMI-1 (hematological)) was 0.02 µM, the IC50 (Homo sapiens, L-363, 72 h, L-363 (hematological)) was 0.02 µM and the IC50 (Homo sapiens, LoVo, LOVO (colon)) was 0.02 µM. The IC50 (Homo sapiens, MCF7, 72 h, MCF7 (breast)) was 2.55 µM, the IC50 (Homo sapiens, MDA-MB-231, 72 h, MDAMB231 (breast)) was 1.06 µM and the IC50 (Homo sapiens, MDA-MB-435, 72 h, MDAMB435 (skin)) was 0.19 µM. It also gave an IC50 (Homo sapiens, MDA-MB-436, 72 h, MDAMB436 (breast)) of 0.05 µM, an IC50 (Homo sapiens, MDA-MB-468, 72 h, MDAMB468 (breast)) of 0.09 µM and an IC50 (Homo sapiens, MG-63, 72 h, MG63 (bone)) of 3.61 µM. For the same molecule, the IC50 (Homo sapiens, MHH-ES-1, 72 h, MHHES1 (bone)) was 0.1 µM, the IC50 (Homo sapiens, MIA PaCa-2, 72 h, MIAPACA2 (pancreas)) was 7.25 µM and the IC50 (Homo sapiens, MINO, MINO (hematological)) was 0.02 µM. The IC50 (Homo sapiens, MV4-11, 72 h, MV4-11 (hematological)) was 0.02 µM, the IC50 (Homo sapiens, NCI-H23, 72 h, NCI-H23 (lung)) was 0.06 µM and the IC50 (Homo sapiens, NCI-H82, 72 h, NCIH82 (lung)) was 0.07 µM. The IC50 (Homo sapiens, NCI-H292, 72 h, NCIH292 (lung)) was 0.83 µM, the IC50 (Homo sapiens, NCI-H460, 72 h, NCIH460 (lung)) was 0.04 µM and the IC50 (Homo sapiens, OVCAR-3, 72 h, OVCAR3 (ovary)) was 0.03 µM. For the same molecule, the IC50 (Homo sapiens, OVCAR-4, 72 h, OVCAR4 (ovary)) was 0.08 µM, the IC50 (Homo sapiens, PLC-PRF-5, 72 h, PLCPRF5 (liver)) was 0.45 µM and the IC50 (Homo sapiens, Panc1005, 72 h, PANC1005 (pancreas)) was 0.06 µM. It also gave an IC50 (Homo sapiens, Ramos, RAMOS (hematological)) of 0.13 µM, an IC50 (Homo sapiens, SAOS-2, 72 h, SAOS2 (bone)) of 0.05 µM and an IC50 (Homo sapiens, SF-268, 72 h, SF268 (brain)) of 1.88 µM. It also gave an IC50 (Homo sapiens, SF-295, 72 h, SF295 (brain)) of 0.23 µM, an IC50 (Homo sapiens, SK-BR-3, 72 h, SKBR3 (breast)) of 0.01 µM and an IC50 (Homo sapiens, SK-HEP1, 72 h, SKHEP1 (liver)) of 0.45 µM. For the same molecule, the IC50 (Homo sapiens, SK-LMS-1, 72 h, SKLMS1 (uterus)) was 0.04 µM, the IC50 (Homo sapiens, SK-MEL-5, 72 h, SKMEL5 (skin; SKMELS [sic] in Table 9E)) was 0.58 µM and the IC50 (Homo sapiens, SK-MEL-28, 72 h, SKMEL28 (skin)) was 0.1 µM. For the same molecule, the IC50 (Homo sapiens, SK-N-AS, SKNAS (brain)) was 0.07 µM, the IC50 (Homo sapiens, SK-N-SH, SKNSH (brain)) was 0.03 µM and the IC50 (Homo sapiens, SK-OV-3, 72 h, SKOV3 (ovary)) was 0.06 µM. For the same molecule, the IC50 (Homo sapiens, SNB-75, 72 h, SNB75 (brain)) was 0.16 µM, the IC50 (Homo sapiens, SU-DHL10, 72 h, SU-DHL-10 (hematological)) was 0.44 µM and the IC50 (Homo sapiens, SU-DHL-6, 72 h, SU-DHL-6 (hematological)) was 0.03 µM. The IC50 (Homo sapiens, SW-620, 72 h, SW620 (colon)) was 0.05 µM, the IC50 (Homo sapiens, TE-671, 72 h, TE671 (muscle)) was 0.37 µM and the IC50 (Homo sapiens, THP-1, 72 h, THP-1 (hematological)) was 1.77 µM. It also gave an IC50 (Homo sapiens, U2OS, U20S (bone; U2OS in Table 9E)) of 0.06 µM, an IC50 (Homo sapiens, U-87 MG, U87MG (brain)) of 2.01 µM and an IC50 (Homo sapiens, UMUC3, 72 h, UMUC3 (bladder)) of 0.98 µM. The IC50 (Homo sapiens, UO-31, 72 h, UO31 (kidney)) was 0.04 µM, the IC50 (Homo sapiens, WSU-NHL, WSU-NHL (hematological)) was 0.03 µM and the IC50 (NCI-H358M, NCIH358M (lung)) was 0.07 µM. For the same molecule, the IC50 (PBMC, PBMC (hematological)) was 0.32 µM and the IC50 (RD-ES, RDES (bone)) was 0.03 µM.
